{
  "source": "patent US5100905A",
  "about": "“Method for inhibiting growth of bacteria, fungi or algae by treatment with biocide composition” (Rohm and Haas Company, priority 1991, dated 1992)",
  "system": "mixture of the following 12 microorganisms: Escherichia coli, Candida albicans, Pseudomonas oleovarans, Pseudomonas aeruginosa, Staphylococcus aureus …",
  "assay": "Growth inhibition / minimum inhibitory concentration (MIC) by 2-fold serial dilutions in Trypticase Soy Broth, 3 inoculations; as to Growth after inoculation: key: -: growth inhibited; +: growth not inhibited",
  "assay_type": "cell-based",
  "protocol": "Each single culture was inoculated to TSB agar slants and incubated for 2 days at 30° C. for C. albicans and all bacteria except E. coli and S. aureus, which were at 37° C., and incubated for 10-14 days at 25° C. for fungal cultures. The bacteria and fungi were then washed off the slants with phosphate buffer (0.125 M, pH 7.2) and inoculated into each test tube containing a given concentration and ratio of 573 and 886 to make final cell concentration of about 2×10^7 bacteria and 2×10^6 fungi per ml. […] Seven days after inoculation, 5 microliter of sample from each test tube (containing about 10^5 bacteria and 10^4 fungi from original inoculation) was removed and assessed for viable organisms by 1:50 dilution into TSB medium and checked for regrowth. No viable organisms were detected from the test tubes where MICs were observed. […] Each test tube was reinoculated 2 more times (a total of 3 inoculations) to determine the capacity and the longlasting activity of the combinations.\nAs shown, a wide range of concentration and ratios was tested. More importantly all the critical end-point activities for the combinations were covered. […] Thus, the end-point activities are based on the minimum concentrations of a given ratio of combination product that inhibit all three inoculations.",
  "data": [
    {"smiles": "Cn1sccc1=O", "note": "[compound 573, 2-methyl-4-isothiazolin-3-one]", "values": [
      {"measurement": "Growth after inoculation", "setting": "Expt. 1, 1st inoculation, 573(A) 0.5 ppm", "result": "+"},
      {"measurement": "Growth after inoculation", "setting": "Expt. 1, 1st inoculation, 573(A) 1.0 ppm", "result": "+"},
      {"measurement": "Growth after inoculation", "setting": "Expt. 1, 1st inoculation, 573(A) 2.0 ppm", "result": "+"},
      {"measurement": "Growth after inoculation", "setting": "Expt. 1, 1st inoculation, 573(A) 3.9 ppm", "result": "+"},
      {"measurement": "Growth after inoculation", "setting": "Expt. 1, 1st inoculation, 573(A) 9.8 ppm", "result": "+"},
      {"measurement": "Growth after inoculation", "setting": "Expt. 1, 1st inoculation, 573(A) 15.6 ppm", "result": "+"},
      {"measurement": "Growth after inoculation", "setting": "Expt. 1, 1st inoculation, 573(A) 31.2 ppm", "result": "+"},
      {"measurement": "Growth after inoculation", "setting": "Expt. 1, 1st inoculation, 573(A) 62.5 ppm", "result": "+"},
      {"measurement": "Growth after inoculation", "setting": "Expt. 1, 1st inoculation, 573(A) 125.0 ppm", "result": "+"},
      {"measurement": "Growth after inoculation", "setting": "Expt. 1, 1st inoculation, 573(A) 250.0 ppm", "result": "-"},
      {"measurement": "Growth after inoculation", "setting": "Expt. 1, 1st inoculation, 573(A) 500.0 ppm", "result": "-"},
      {"measurement": "Growth after inoculation", "setting": "Expt. 1, 2nd inoculation, 573(A) 0.5 ppm", "result": "+"},
      {"measurement": "Growth after inoculation", "setting": "Expt. 1, 2nd inoculation, 573(A) 1.0 ppm", "result": "+"},
      {"measurement": "Growth after inoculation", "setting": "Expt. 1, 2nd inoculation, 573(A) 2.0 ppm", "result": "+"},
      {"measurement": "Growth after inoculation", "setting": "Expt. 1, 2nd inoculation, 573(A) 3.9 ppm", "result": "+"},
      {"measurement": "Growth after inoculation", "setting": "Expt. 1, 2nd inoculation, 573(A) 9.8 ppm", "result": "+"},
      {"measurement": "Growth after inoculation", "setting": "Expt. 1, 2nd inoculation, 573(A) 15.6 ppm", "result": "+"},
      {"measurement": "Growth after inoculation", "setting": "Expt. 1, 2nd inoculation, 573(A) 31.2 ppm", "result": "+"},
      {"measurement": "Growth after inoculation", "setting": "Expt. 1, 2nd inoculation, 573(A) 62.5 ppm", "result": "+"},
      {"measurement": "Growth after inoculation", "setting": "Expt. 1, 2nd inoculation, 573(A) 125.0 ppm", "result": "+"},
      {"measurement": "Growth after inoculation", "setting": "Expt. 1, 2nd inoculation, 573(A) 250.0 ppm", "result": "+"},
      {"measurement": "Growth after inoculation", "setting": "Expt. 1, 2nd inoculation, 573(A) 500.0 ppm", "result": "-"},
      {"measurement": "Growth after inoculation", "setting": "Expt. 1, 3rd inoculation, 573(A) 0.5 ppm", "result": "+"},
      {"measurement": "Growth after inoculation", "setting": "Expt. 1, 3rd inoculation, 573(A) 1.0 ppm", "result": "+"},
      {"measurement": "Growth after inoculation", "setting": "Expt. 1, 3rd inoculation, 573(A) 2.0 ppm", "result": "+"},
      {"measurement": "Growth after inoculation", "setting": "Expt. 1, 3rd inoculation, 573(A) 3.9 ppm", "result": "+"},
      {"measurement": "Growth after inoculation", "setting": "Expt. 1, 3rd inoculation, 573(A) 9.8 ppm", "result": "+"},
      {"measurement": "Growth after inoculation", "setting": "Expt. 1, 3rd inoculation, 573(A) 15.6 ppm", "result": "+"},
      {"measurement": "Growth after inoculation", "setting": "Expt. 1, 3rd inoculation, 573(A) 31.2 ppm", "result": "+"},
      {"measurement": "Growth after inoculation", "setting": "Expt. 1, 3rd inoculation, 573(A) 62.5 ppm", "result": "+"},
      {"measurement": "Growth after inoculation", "setting": "Expt. 1, 3rd inoculation, 573(A) 125.0 ppm", "result": "+"},
      {"measurement": "Growth after inoculation", "setting": "Expt. 1, 3rd inoculation, 573(A) 250.0 ppm", "result": "+"},
      {"measurement": "Growth after inoculation", "setting": "Expt. 1, 3rd inoculation, 573(A) 500.0 ppm", "result": "-"},
      {"measurement": "End-point activity (MIC) Qa (573 in the mixture of 573 and 886)", "setting": "Expt. 1, all three inoculations", "result": 500.0, "unit": "ppm"},
      {"measurement": "Growth after inoculation", "setting": "Expt. 2, 1st inoculation, 573(A) 0.5 ppm", "result": "+"},
      {"measurement": "Growth after inoculation", "setting": "Expt. 2, 1st inoculation, 573(A) 1.0 ppm", "result": "+"},
      {"measurement": "Growth after inoculation", "setting": "Expt. 2, 1st inoculation, 573(A) 2.0 ppm", "result": "+"},
      {"measurement": "Growth after inoculation", "setting": "Expt. 2, 1st inoculation, 573(A) 3.9 ppm", "result": "+"},
      {"measurement": "Growth after inoculation", "setting": "Expt. 2, 1st inoculation, 573(A) 9.8 ppm", "result": "+"},
      {"measurement": "Growth after inoculation", "setting": "Expt. 2, 1st inoculation, 573(A) 15.6 ppm", "result": "+"},
      {"measurement": "Growth after inoculation", "setting": "Expt. 2, 1st inoculation, 573(A) 31.2 ppm", "result": "+"},
      {"measurement": "Growth after inoculation", "setting": "Expt. 2, 1st inoculation, 573(A) 62.5 ppm", "result": "+"},
      {"measurement": "Growth after inoculation", "setting": "Expt. 2, 1st inoculation, 573(A) 125.0 ppm", "result": "-"},
      {"measurement": "Growth after inoculation", "setting": "Expt. 2, 1st inoculation, 573(A) 250.0 ppm", "result": "-"},
      {"measurement": "Growth after inoculation", "setting": "Expt. 2, 1st inoculation, 573(A) 500.0 ppm", "result": "-"},
      {"measurement": "Growth after inoculation", "setting": "Expt. 2, 2nd inoculation, 573(A) 0.5 ppm", "result": "+"},
      {"measurement": "Growth after inoculation", "setting": "Expt. 2, 2nd inoculation, 573(A) 1.0 ppm", "result": "+"},
      {"measurement": "Growth after inoculation", "setting": "Expt. 2, 2nd inoculation, 573(A) 2.0 ppm", "result": "+"},
      {"measurement": "Growth after inoculation", "setting": "Expt. 2, 2nd inoculation, 573(A) 3.9 ppm", "result": "+"},
      {"measurement": "Growth after inoculation", "setting": "Expt. 2, 2nd inoculation, 573(A) 9.8 ppm", "result": "+"},
      {"measurement": "Growth after inoculation", "setting": "Expt. 2, 2nd inoculation, 573(A) 15.6 ppm", "result": "+"},
      {"measurement": "Growth after inoculation", "setting": "Expt. 2, 2nd inoculation, 573(A) 31.2 ppm", "result": "+"},
      {"measurement": "Growth after inoculation", "setting": "Expt. 2, 2nd inoculation, 573(A) 62.5 ppm", "result": "+"},
      {"measurement": "Growth after inoculation", "setting": "Expt. 2, 2nd inoculation, 573(A) 125.0 ppm", "result": "-"},
      {"measurement": "Growth after inoculation", "setting": "Expt. 2, 2nd inoculation, 573(A) 250.0 ppm", "result": "-"},
      {"measurement": "Growth after inoculation", "setting": "Expt. 2, 2nd inoculation, 573(A) 500.0 ppm", "result": "-"},
      {"measurement": "Growth after inoculation", "setting": "Expt. 2, 3rd inoculation, 573(A) 0.5 ppm", "result": "+"},
      {"measurement": "Growth after inoculation", "setting": "Expt. 2, 3rd inoculation, 573(A) 1.0 ppm", "result": "+"},
      {"measurement": "Growth after inoculation", "setting": "Expt. 2, 3rd inoculation, 573(A) 2.0 ppm", "result": "+"},
      {"measurement": "Growth after inoculation", "setting": "Expt. 2, 3rd inoculation, 573(A) 3.9 ppm", "result": "+"},
      {"measurement": "Growth after inoculation", "setting": "Expt. 2, 3rd inoculation, 573(A) 9.8 ppm", "result": "+"},
      {"measurement": "Growth after inoculation", "setting": "Expt. 2, 3rd inoculation, 573(A) 15.6 ppm", "result": "+"},
      {"measurement": "Growth after inoculation", "setting": "Expt. 2, 3rd inoculation, 573(A) 31.2 ppm", "result": "+"},
      {"measurement": "Growth after inoculation", "setting": "Expt. 2, 3rd inoculation, 573(A) 62.5 ppm", "result": "+"},
      {"measurement": "Growth after inoculation", "setting": "Expt. 2, 3rd inoculation, 573(A) 125.0 ppm", "result": "-"},
      {"measurement": "Growth after inoculation", "setting": "Expt. 2, 3rd inoculation, 573(A) 250.0 ppm", "result": "-"},
      {"measurement": "Growth after inoculation", "setting": "Expt. 2, 3rd inoculation, 573(A) 500.0 ppm", "result": "-"},
      {"measurement": "End-point activity (MIC) Qa (573 in the mixture of 573 and 886)", "setting": "Expt. 2, all three inoculations", "result": 125.0, "unit": "ppm"},
      {"measurement": "Contribution to the overall activity of 886", "setting": "at very low concentrations (<8 ppm)", "result": "does not contribute significantly to the overall activity of 886"}
    ]}
  ]
}
